Measured values from patent US20210196681A1, “SELECTIVE PRESENILIN-2 GAMMA-SECRETASE INHIBITORS” (UNIVERSITEIT MAASTRICHT, priority 2018, published 2021).

Tests used:
[1] = test system: oncogenic mutant Notch1 (ΔEGF-Notch1-L1594P-MYC) activity
Experimental: Cells transduced with ΔEGF-Notch1-L1594P construct were maintained with 1 μg/ml of puromycin. pcDNA3 hNotch1 full-length construct, encoding an N terminal FLAG-tag, followed by the ectodomains and the transmembrane domains of Notch1 fused to the Gal4 DNA binding domain and the transcriptional activation domain of Notch1 was used.
Firefly luciferase encoding reporter plasmids containing synthetic CSL binding sites (pGL4.24-12xCSL) was used to monitor Notch activity, using pGL4.74 TK-hRL (Promega) as transfection control. […] A CMV driven Firefly luciferase-GFP construct was used as transfection control. Transfections were performed using Fugene HD transfection reagent (Promega). […]
1 μg of the primary reporter was used to record the effect of specific stimuli and 0.1 μg of the control reporter for normalization. […] Cells were washed, lysed and luciferase was measured, as described by manufacturer (dual-glo luciferase reporter assay system Promega) on a Fluostar Omega plate reader (BMG Labtech) For Gal4-luciferase assay, various concentrations of the Notch receptor plasmids were transfected and complemented with empty vector. […] For Gaussia-Luc assay, medium was collected at different time points to monitor overtime 12xCSL activation and measured with the BioLux® Gaussia Luciferase Assay Kit according to manufacturer's instructions (NEB). All values are expressed as relative light units (RLU).

Presenilin 2 (Psen2) = target: T1, Presenilin 2 (Psen2) (Homo sapiens, UniProt P49810); experiment: Presenilin specific luciferase/cleavage reporter assay in PS1/2 DKO mEF reconstituted with Presenilin 2; assay type: cell-based; conditions: Psen2 reconstituted cells, compared to cleavage inhibition of the same compound for Psen1; FIG. 4
T1 construct: expressed in transfected cells; host or cells: PS1/2 DKO mouse embryonic fibroblasts (mEF) reconstituted with Presenilin 2
T1 sequence (P49810 1-297 limits assumed): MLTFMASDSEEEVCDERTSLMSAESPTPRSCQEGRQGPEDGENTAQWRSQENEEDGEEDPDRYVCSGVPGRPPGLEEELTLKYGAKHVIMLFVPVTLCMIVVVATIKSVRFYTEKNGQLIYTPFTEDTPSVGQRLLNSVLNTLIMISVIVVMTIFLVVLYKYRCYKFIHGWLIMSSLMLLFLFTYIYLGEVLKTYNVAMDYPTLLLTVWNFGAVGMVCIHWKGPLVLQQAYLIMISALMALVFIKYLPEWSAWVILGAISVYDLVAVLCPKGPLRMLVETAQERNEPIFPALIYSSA
T1 sequence (P49810 298-448 limits assumed): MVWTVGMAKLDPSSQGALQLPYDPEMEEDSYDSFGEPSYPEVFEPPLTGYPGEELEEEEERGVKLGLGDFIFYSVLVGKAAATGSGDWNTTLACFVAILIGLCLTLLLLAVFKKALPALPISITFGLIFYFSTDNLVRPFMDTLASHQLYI
T1 sequence (P57716 34-708 partner limits assumed): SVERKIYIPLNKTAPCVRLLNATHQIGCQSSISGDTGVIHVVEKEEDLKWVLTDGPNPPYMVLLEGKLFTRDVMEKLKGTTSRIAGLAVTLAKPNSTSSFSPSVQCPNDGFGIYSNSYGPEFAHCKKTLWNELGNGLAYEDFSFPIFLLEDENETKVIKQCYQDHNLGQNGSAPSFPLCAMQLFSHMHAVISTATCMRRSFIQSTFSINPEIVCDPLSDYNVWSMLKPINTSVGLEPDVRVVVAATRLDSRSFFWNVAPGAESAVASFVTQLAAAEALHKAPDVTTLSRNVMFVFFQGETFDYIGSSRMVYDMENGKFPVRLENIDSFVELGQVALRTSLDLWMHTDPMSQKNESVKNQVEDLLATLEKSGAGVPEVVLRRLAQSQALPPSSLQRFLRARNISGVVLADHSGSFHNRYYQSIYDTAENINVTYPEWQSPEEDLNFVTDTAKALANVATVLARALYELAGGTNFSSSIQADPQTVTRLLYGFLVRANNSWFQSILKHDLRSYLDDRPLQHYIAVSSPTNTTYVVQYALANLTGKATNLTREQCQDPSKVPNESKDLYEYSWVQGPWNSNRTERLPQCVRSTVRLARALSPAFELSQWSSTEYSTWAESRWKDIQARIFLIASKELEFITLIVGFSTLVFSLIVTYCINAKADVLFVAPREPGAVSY
T1 sequence (Q8BVF7 whole entry partner): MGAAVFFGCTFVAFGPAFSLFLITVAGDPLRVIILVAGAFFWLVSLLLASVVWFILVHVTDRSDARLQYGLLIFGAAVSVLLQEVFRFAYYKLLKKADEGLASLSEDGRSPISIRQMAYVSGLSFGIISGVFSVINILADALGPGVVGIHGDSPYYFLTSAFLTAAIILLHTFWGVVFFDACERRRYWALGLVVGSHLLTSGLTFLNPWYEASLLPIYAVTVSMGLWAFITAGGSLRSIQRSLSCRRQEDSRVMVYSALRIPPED
T1 sequence (Q9CQR7 whole entry partner): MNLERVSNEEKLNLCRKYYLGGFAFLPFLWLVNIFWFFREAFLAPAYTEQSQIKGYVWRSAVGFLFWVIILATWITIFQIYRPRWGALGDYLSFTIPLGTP
Experimental: Immunoblot on cell lysates of PS1/2 DKO cells, and PS1/2 DKO reconstituted with either Presenilin 1 or Presenilin 2 were provided. Blots were probed with antibodies for nicastrin, Presenilin 1 (C-terminal fragment), Presenilin 2 (C-terminal fragment), and β-actin (loading control) to verify the cell construct used for later experiments. Double knock out of PSEN1 and PSEN2 and reconstitution were successful.
Cells were plated 24 hours prior to transfection in 6 wells plates (200.000 cells/well in 2 mL). Cells were transfected using linear polyethylenimin (P-PEI) and DMEM/f12. 2.3 μg Firefly luciferase reporter plasmids containing synthetic Gal4-binding sites (5xUAS FR-luc) were used per 6 well, as well as 150 ng herpes thymidine kinase-driven Renilla luciferase (here serving as a housekeeping gene, and thus normalizing yardstick) and 50 ng Histone-2B (H2B)-GFP (here serving as a control for transfection success). […] 24 h after transfection, […] were washed with PBS, lysed and measured following manufacturer's directions for the Dual Luciferase Reporter (DLRTM) Assay system (Promega, The Netherlands). Analysis was carried out using the FLUOstar microplate reader (BMG Labtech, Germany). […]

Compound | Inhibition of mutant Notch1 transcriptional activity by CQ [1] | Cleavage inhibition (Psen2 specificity) (Presenilin 2 (Psen2))
CCN(CC)CCCC(C)Nc1ccnc2cc(Cl)ccc12 (centres unmarked) [CQ, Chloroquine] | most strongly inhibited | –
CCC[C@H](NC(=O)[C@@H](O)c1cc(F)cc(F)c1)C(=O)Nc1cn(C(C)(C)CN(C)C)cn1 [SN262, (S)-2-((S)-2-(3,5-difluorophenyl)-2-hydroxyacetamido)-N-(1-(1-(dimethylamino)-2-methylpropan-2-yl)-1H-imidazol-4-yl)pentanamide] | – | high percentage of cleavage inhibition
